Results on 25 molecules are retold here after patent publication US20070015723A1, “Antiviral oligonucleotides having a conserved G4 core sequence” (priority 1992, published 2007).

The EC50 is the midpoint of the concentration-response curve. What is called IC50 is the concentration needed to halve the response being measured. Higher therefore signals weaker potency in that assay.

Data set [1] deals with HSV-1 (KOS). Description: HSV-1 infection ELISA assay. The class given is cell-based. (In general: An ELISA detects its analyte on a solid surface through an enzyme-linked reagent.)
For data set [2], the system named is CEM cell line.
For data set [3], the system named is HIV-1IIIB. Description: Acute HIV infection assay (XTT, CEM cells). Conditions: inhibition of HIV.
The target in data set [4] is T1, human type II phospholipase A2 (Homo sapiens, UniProt P14555).
T1 sequence (P14555 21-144): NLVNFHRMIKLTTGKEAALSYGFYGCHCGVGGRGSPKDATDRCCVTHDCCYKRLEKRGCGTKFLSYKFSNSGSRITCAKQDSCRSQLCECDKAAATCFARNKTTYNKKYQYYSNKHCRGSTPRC
Description: Human type II phospholipase A2 enzyme assay (3H-oleic acid labelled E. coli substrate). The class given is biochemical. Conditions: 1 μM.

Data set [5] deals with human cytomegalovirus. Description: Cytomegalovirus inhibition ELISA assay. As to conditions: HCMV. The data set is classed as cell-based.
Data set [6] relates to Adenovirus, Type 5 (A-5), strain Adenoid 75. The class given is cell-based.
Data set [7] deals with rhinovirus 2 (R-2), strain HGP. The class given is cell-based, human rhinovirus.
Data set [8] has as its system influenza strain A/NWS/33 (H1N1). The data set is classed as cell-based, influenza virus.
For data set [9], the system named is respiratory syncytial virus (RSV) strain Long. The class given is cell-based.
Data set [10] deals with HSV1-McKrae. Nature of the data set: HSV ELISA assay, strain HSV1-McKrae. The data set is classed as cell-based, HSV-1.
Data set [11] relates to HSV1-DM2.1. Nature of the data set: microbe, parasite or virus in culture. The class given is cell-based, HSV-1.
Data set [12] relates to HSV1-PAAr. Description: microbe, parasite or virus in culture. The class given is cell-based, HSV-1.
Data set [13] concerns HSV1-F. Description: HSV ELISA assay, strain HSV1-F. The data set is classed as cell-based, HSV-1.
The subject of data set [14] is HSV-2. Description: HSV ELISA assay, HSV-2. The class given is cell-based.
In data set [15] the test system is HSV-1 (KOS). Description: HSV-1 virus yield assay. Conditions: for anti-HSV activity in virus yield assay: FIG. 2. The data set is classed as cell-based.
Data set [16] concerns HIV-1IIIB.
Data set [17] concerns HSV-2 strain E194. The class given is cell-based.
The test system of data set [18] is vaccinia virus. The data set is classed as cell-based. Conditions: Vacc.
Where [19] appears, read: 50% inhibition of HSV replication relative to control infected cells, Table 1.
[20] abbreviates: Table 5, two separate experiments.
The mark [21] stands for this setting: HSV-1 (KOS strain), Table 9, some in duplicate.

Values joined by “and” are separate entries in the source; they are usually repeats but may differ in a detail not shown here. Identical values can stand only once. Like-named read-outs stand apart in the source and are kept apart here. Strand notation (5' to 3'): a small letter for the sugar, then the base; units joined by * are phosphorothioate-linked, units joined directly phosphodiester-linked; [ ] holds rarer units or linkages, { } end groups; capitals alone tell only the bases. d = 2'-deoxy (DNA)

“ISIS 5674: TT GGGG TT GGGG, P = S, SEQ ID NO 41 (TTGGGGTTGGGG; all phosphorothioate, sugars by position not given here)”: it took 1500 nM to reach a half-maximal effect in data set [1] (setting [19]) (EC50). Also, in data set [2], the TC50 was more than 200000 nM. For the same molecule, in data set [3], the IC50 worked out at 430 nM.

Take “ISIS 4717: GG GGT TGG GG, P = S, SEQ ID NO 26 (GGGGTTGGGG; all phosphorothioate, sugars by position not given here)”: in [4] (setting [20]), the “% Inhibition (1 μM)” value is given as 83.1%. Further, in data set [1] (setting [19]), a half-maximal response (EC50) required 600 nM. For the same molecule, the IC50 in [5] is 1000 nM; in data set [3], 410 nM.

As for `NC(=O)c1ncn([C@@H]2O[C@H](CO)[C@@H](O)[C@H]2O)n1` [Ribavirin], the ED50 in [6] came to 82000 nM; in data set [7] it was 229000 nM; in [8], 7780 nM; in data set [9] it was 49000 nM.

“ISIS 1082: GCCGAGGTCCATGTCGTACGC, SEQ ID NO 134; negative control, complementary to HSV UL13 translation initiation codon, no runs of G (dG*dC*dC*dG*dA*dG*dG*dT*dC*dC*dA*dT*dG*dT*dC*dG*dT*dA*dC*dG*dC)”: the concentration giving a half-maximal response (EC50) in [1] (setting [21]) is 2500 nM and 1800 nM; in [1] (HSV-1 (KOS), Table 10), 2100 nM; in data set [10], more than 3000 nM; in data set [11] (HSV1-DM2.1 (resistant to ACV), read-out: EC50), more than 3000 nM; in data set [12] (HSV1-PAAr (resistant to ACV), read-out: EC50) it was more than 3000 nM; in [13], more than 3000 nM. The same molecule yielded an EC50 in [14] of 2000 nM.

Turning to “ISIS 5653: TT GGGG TT GGGG TT GGGG, P = S, SEQ ID NO 38 (TTGGGGTTGGGGTTGGGG; all phosphorothioate, sugars by position not given here)”, in data set [15], the “anti-HSV activity in virus yield assay” value is on record as “dose-dependent anti-HSV activity”. The response in data set [1] (setting [19]) was half-maximal at 200 nM (EC50). The same molecule gave a TC50 in data set [2] of 27000 nM. This molecule came in with an IC50 in [3] of 120 nM.

Regarding “ISIS 4672: GGG T GGG T ATA G, P = S, SEQ ID NO 50 (GGGTGGGTATAG; all phosphorothioate, sugars by position not given here)”, the “% Inhibition (1 μM)” value in [4] (setting [20]) was 73.9% and 94.6%. The molecule further displayed an EC50 in data set [1] (setting [19]) of 200 nM.

Regarding “ISIS 5675: TT GGGG TT GGGG TT, P = S, SEQ ID NO 40 (TTGGGGTTGGGGTT; all phosphorothioate, sugars by position not given here)”, in data set [1] (setting [19]), the midpoint of the response, the EC50, lay at 420 nM. In addition, the TC50 in data set [2] is 14000 nM. In addition, the “TI (TC50/IC50)” value in data set [16] was found to be 36. Moreover, the IC50 in data set [3] worked out at 380 nM.

Molecule `Nc1nc2c(ncn2COCCO)c(=O)[nH]1` [ACV, 9-(2-hydroxyethoxymethyl)guanine] returned an ED50 in data set [17] of 97700 nM. Besides, the half-maximal effective concentration (EC50) was 1800 nM in [10] (Human alphaherpesvirus 1); more than 3000 nM in data set [11] (Human alphaherpesvirus 1); more than 3000 nM in data set [12] (Human alphaherpesvirus 1); 700 nM in data set [13] (Human alphaherpesvirus 1); 2000 nM in [14] (Human alphaherpesvirus 2).

For the molecule “ISIS 5676: GGGG TT GGGG TT GGGG, P = S, SEQ ID NO 39 (GGGGTTGGGGTTGGGG; all phosphorothioate, sugars by position not given here)”, the “anti-HSV activity in virus yield assay” value in [15] was “dose-dependent anti-HSV activity”. In data set [1] (setting [19]), the EC50 amounted to 230 nM. The “TI (TC50/IC50)” value in data set [16] turned out to be 114. Also, the half-maximal inhibitory concentration (IC50) in data set [3] was 180 nM and 280 nM.

In turn, “ISIS 5667: TT GGGG TT GGGG TT, P = O, SEQ ID NO 56 (TTGGGGTTGGGGTT; all phosphodiester, sugars by position not given here)” registered a TC50 in [2] of 5600 nM. The molecule also returned an IC50 in data set [3] of more than 22000 nM.

“ISIS 5677: GGGG TT GGGG TT GGGG TT GGGG, P = S, SEQ ID NO 36 (GGGGTTGGGGTTGGGGTTGGGG; all phosphorothioate, sugars by position not given here)” came in with an EC50 in data set [1] (setting [19]) of 200 nM. The “TI (TC50/IC50)” value in data set [16] is recorded as 146. Besides, in [3], the IC50 was 100 nM and 190 nM.

With “ISIS 5651: TT GGGG TT GGGG TT GGGG TT GGGG, P = S, SEQ ID NO 35 (TTGGGGTTGGGGTTGGGGTTGGGG; all phosphorothioate, sugars by position not given here)”, the “anti-HSV activity in virus yield assay” value in [15] was “dose-dependent anti-HSV activity”. Moreover, the “antiviral activity in virus yield assay” value in data set [15] (dose of 3 mM, FIG. 1) was “greater antiviral activity than did Acyclovir”. In data set [1] (setting [19]), this molecule displayed a half-maximal effective concentration (EC50) of 170 nM. Also, in data set [16], the “TI (TC50/IC50)” value came to 175. Besides, in [3], the IC50 is 100 nM and 180 nM.

Consider “ISIS 5668: TT GGGG TT GGGG, P = O, SEQ ID NO 57 (TTGGGGTTGGGG; all phosphodiester, sugars by position not given here)”, for which the TC50 in data set [2] is 5200 nM. The molecule also yielded a half-maximal inhibitory concentration (IC50) in [3] of more than 21000 nM.

Molecule “ISIS 4897: CAC GGG GTC GCC GAT, P = S, SEQ ID NO 31 (CACGGGGTCGCCGAT; all phosphorothioate, sugars by position and methylation of C not given here)” showed an EC50 in [1] (setting [19]) of 130 nM. This molecule gave an IC50 in [3] of 430 nM.

Regarding “ISIS 5590: GGGG TT GGGG, P = O, SEQ ID NO 46 (GGGGTTGGGG; all phosphodiester, sugars by position not given here)”, in data set [1] (setting [19]), the 50% effective concentration (EC50) was more than 3000 nM. Also, the TC50 in data set [2] amounted to 20000 nM. Moreover, the half-maximal inhibitory concentration (IC50) in data set [3] was more than 25000 nM.

For the molecule `Nc1ncnc2c1ncn2[C@@H]1O[C@H](CO)[C@@H](O)[C@@H]1O` [Ara-A, 9-(β-D-arabinofuranosyl)adenine], the ED50 in data set [18] was found to be 15800 nM.

“ISIS 4350: GACGGTCAAGGGGAGGGTTGG, phosphorothioate, SEQ ID NO 129 (GACGGTCAAGGGGAGGGTTGG; all phosphorothioate, sugars by position and methylation of C not given here)” displayed an EC50 in [1] (setting [21]) of 250 nM.

“ISIS 4925: GTT GGA GAC CGG IGT TGG IG, Inosine #13, 19, SEQ ID NO 137 (GTT GGA GAC CGG IGTTGG IG; inosine at 13, 19, as printed in the source, key not given here)” yielded an EC50 in data set [1] (Table 12, inosine-substituted) of 1600 nM.

As to “ISIS 5310: GTT GGA GAC CGG GGT TGG GI, Inosine #20, SEQ ID NO 141 (GTT GGA GAC CGG GGTTGG GI; inosine at 20, as printed in the source, key not given here)”, the EC50 in data set [1] (Table 12, inosine-substituted) is 400 nM.

For the molecule “ISIS 4560: GGGG C GGGG C GGGG C GGGG C G, P = S, SEQ ID NO 42 (dG*dG*dG*dG*dC*dG*dG*dG*dG*dC*dG*dG*dG*dG*dC*dG*dG*dG*dG*dC*dG)”, the “% Inhibition (1 μM)” value in data set [4] (Table 4) is 100%. For the same molecule, in data set [1] (setting [19]), the EC50 came out at 180 nM. Besides, the values for the 50% inhibitory concentration (IC50) in data set [5] and in [3] were 150 nM and 140 nM, respectively.

Regarding “ISIS 4890: GCC AGG GGA ATC CGT, P = S, SEQ ID NO 15 (GCCAGGGGAATCCGT; all phosphorothioate, sugars by position and methylation of C not given here)”, the concentration for a half-maximal effect (EC50) in [1] (setting [19]) was 750 nM and 700 nM.

Take “ISIS 5309: GTT GGA GAC CGI GGT TGG GG, Inosine #12, SEQ ID NO 140 (GTT GGA GAC CGI GGTTGG GG; inosine at 12, as printed in the source, key not given here)”: the concentration for a half-maximal effect (EC50) in [1] (Table 12, inosine-substituted) is more than 3000 nM.

“ISIS 4873: CAT GAC CGG GGC, P = S, SEQ ID NO 4 (CATGACCGGGGC; all phosphorothioate, sugars by position and methylation of C not given here)”: in data set [1] (setting [19]), the concentration giving a half-maximal response (EC50) was 1400 nM and 1000 nM. In addition, in data set [3], half-maximal inhibition (IC50) was put at 1000 nM.

“ISIS 4342: TTGGAGACCGGGGTTGGGGA, phosphorothioate, SEQ ID NO 128 (TTGGAGACCGGGGTTGGGGA; antisense; all phosphorothioate, sugars by position and methylation of C not given here)” returned a half-maximal effective concentration (EC50) in data set [1] (setting [21]) of 200 nM.

“ISIS 5366: TTGGGGTTGGGGTTGGGGTTG GGGG, P = S, SEQ ID NO 33 (TTGGGGTTGGGGTTGGGGTTGGGGG; all phosphorothioate, sugars by position not given here)”: the EC50 in data set [1] (setting [19]) amounted to 160 nM. In data set [2], this molecule registered a TC50 of 22000 nM. Further, the “TI (TC50/IC50)” value in data set [16] turned out to be 220. The half-maximal inhibitory concentration (IC50) is 100 nM in [5]; 80 nM and 100 nM in data set [3].
